No end group written: not given here.
Key:
Type in all cases: cell-based
Bacillus megaterium = test: Inhibition zone assay repeated with Bacillus megaterium (Example 4); conditions: times higher than in relation to E. coli
Method: (§1) The antibacterial activity of the polypeptide of this invention was determined by inhibition zone assay as described by Hultmark et al. (Hultmark, D., Engstrom, A., Anderson, K., Steiner, H., Bennich, H. and Boman, H. G. (1983). Insect immunity. Attacins, a family of antibacterial proteins from Hyalophora cecropia. EMBO J. 2, 571-576).
(§2) Log-phase bacteria were grown to a density of 100 units on a Klett-summerson photoelectric colorimeter. They were diluted 50 times with LB medium and 50 μl of the bacteria suspension was mixed with 6 ml of 1.0% agarose in LB medium (w/v) and poured on the petri dishes (Falcon 1001 Optilux) with inner diameter 8.65 cm. For E. coli this procedure will give about 2×10^5 bacteria per plate.
The plates were left for 1 hour at room temperature, and holes with 3 mm diameter were made on the solidified agarose. 100 μl of fractions were dried in a speedvac and dissolved in 10 μl H2 O, of which 3 μl was applied to the holes. After 30 min diffusion time the plates were incubated at 30° C. overnight. The diameter of the inhibition zones were measured and the relative unit activity was calculated from a standard curve which was constructed on varying amount of Cecropin A versus activity. One microgram of Cecropin A corresponds to 1000 units of activity. […]

[1] = tested on: Acinetobacter calcoaceticus Ac11; test: Inhibition zone assay of PR-peptide on different bacteria; conditions: strain Ac11
Method: as §1, §2
(§3) The plates were left for 1 hour at room temperature, and holes with 3 mm diameter were made on the solidified agarose. 100 μl of fractions were dried in a speedvac and dissolved in 10 μl H2 O, of which 3 μl was applied to the holes. After 30 min diffusion time the plates were incubated at 30° C. overnight. The diameter of the inhibition zones were measured and the relative unit activity was calculated from a standard curve which was constructed on varying amount of Cecropin A versus activity. One microgram of Cecropin A corresponds to 1000 units of activity.
(§4) The maximum concentration of PR-peptide was 2,5 mM and 3 μl was applied to each well in thin agarose plates seeded with test bacterium. LV values are obtained from a dilution serie and is the lowest concentration giving killing (Muirmark, D., Engstrem, A., Anderson, K., Steiner, H., Bennich, H. and Boman, H. G. (1983))

Bacillus megaterium Bm11 = test: as above; conditions: strain Bm11
Method: as §1, §2, §3, §4

Bacillus subtilis Bs11 = test: as above; conditions: strain Bs11
Method: as §1, §2, §3, §4

[2] = tested on: Escherichia coli Bd2221/75; test: as above; conditions: strain Bd2221/75
Method: as §1, §2, §3, §4

Escherichia coli K12 D21 = test: as above; conditions: strain D21
Method: as §1, §2, §3, §4

Proteus vulgaris Pv11 = test: as above; conditions: strain Pv11
Method: as §1, §2, §3, §4

[3] = tested on: Pseudomones aeruginose OT97; test: as above; conditions: strain OT97
Method: as §1, §2, §3, §4

[4] = tested on: Salmonella typhimurium L12; test: as above; conditions: strain L12
Method: as §1, §2, §3, §4

[5] = tested on: Staphylococcus aureus Cowan 1; test: as above; conditions: strain Cowan 1
Method: as §1, §2, §3, §4

Streptococcus pyrogenes = test: as above
Method: as §1, §2, §3, §4

[6] = lowest concentration giving killing, from dilution series
[7] = maximum concentration 2,5 mM, 3 μl per well, thin agarose plates

In the case of “RRRPRPPYLPRPRPPPFFPPRLPPRIPPGFPPRFPPRFP [PR-peptide, bactericidal polypeptide isolated from pig small intestine]”, the “average activity against Bacillus megaterium relative to E. coli” value (Bacillus megaterium) is reported as “about 3 times”, the LC value [1, 6] is reported as 3 µM and the Max zone [1, 7] is reported as 12,5 mm. For the same sequence, the LC value (Bacillus megaterium Bm11; [6]) was 0,3 μM, the Max zone (Bacillus megaterium Bm11; [7]) was 17,4 mm and the LC value (Bacillus subtilis Bs11; [6]) was 15 µM. For the same sequence, the Max zone (Bacillus subtilis Bs11; [7]) was 10,3 mm, the LC value [2, 6] was 0,3 μM and the Max zone [2, 7] was 17,6 mm. For the same sequence, the LC value (Escherichia coli K12 D21; [6]) was 0,3 μM, the Max zone (Escherichia coli K12 D21; [7]) was 18,3 mm and the LC value (Proteus vulgaris Pv11; [6]) was 300 µM. The Max zone (Proteus vulgaris Pv11; [7]) was 3,5 mm, the LC value [3, 6] was 200 µM and the Max zone [3, 7] was 4,5 mm. For the same sequence, the LC value [4, 6] was 1 µM, the Max zone [4, 7] was 15,2 mm and the LC value [5, 6] was 200 µM. The Max zone [5, 7] was 3,7 mm, the LC value (Streptococcus pyrogenes; [6]) was 2 µM and the Max zone (Streptococcus pyrogenes; [7]) was 14,9 mm.
